Laboratory results as given in PMC5872703, “The Postprandial Anti-Hyperglycemic Effect of Pyridoxine and Its Derivatives Using In Vitro and In Vivo Animal Models” (Nutrients, 2018).
Where “and” joins values, the source holds several entries; their conditions need not be identical. Equal values may be shown once. Marks after values point to notes of the source that are not given here.

Tests used:
Sprague-Dawley (SD) rats [1] = assay: Starch loading test, postprandial blood glucose; type: in vivo, rat; conditions: for BGL AUCt / blood glucose level / increase in blood glucose level: SD rats; for BGL AUCt: starch 2.0 g/kg; for blood glucose level / increase in blood glucose level: starch 2.0 g/kg oral, 30 min after administration
Method: (§1) All animal procedures were approved by Institutional Animal Care and Use Committee (IACUC) of the Hannam University (Approval number: HNU2017-003). Four-week-old male SD rats were purchased from Raon Bio Co. (Gyeonggi-do, Korea) and fed a solid diet (Raon Bio Co., Gyeonggi-do, Korea) for one week. The rats were housed in a ventilated room at 23 ± 2 °C with 50 ± 5% relative humidity, and under an alternating 12 h light/dark cycle. […] The blood samples were then taken from the tail after administration and blood glucose levels were measured at 0, 0.5, 1, 2, and 3 h.

Sprague-Dawley (SD) rats [2] = assay: Sucrose loading test, postprandial blood glucose; type: in vivo, rat; conditions: for BGL AUCt / blood glucose level / change (increase) of blood glucose level: SD rats; for BGL AUCt: sucrose 2.0 g/kg; for blood glucose level / change (increase) of blood glucose level: sucrose 2.0 g/kg oral, 30 min after administration
Method: as §1

[3] = tested on: rat intestinal α-glucosidase; assay: Rat intestinal α-glucosidase inhibition assay (pNPG); type: biochemical; conditions: for IC50 Rat intestinal α-Glucosidase: mean ± S.D.
Method: The rat intestinal α-glucosidase assay was administered as per the method of Kwon et al. with slight modification. A total of 1 g of rat-intestinal acetone powder was suspended in 3 mL of 0.1 M sodium phosphate buffer (pH 6.9), and the suspension was sonicated 12 times for 30 s at 4 °C. After centrifugation (10,000× g, 30 min, 4 °C), the resulting supernatant was used for the assay. Sample solution (50 μL) and 0.1 phosphate buffer (pH 6.9, 100 μL) containing α-glucosidase (Sigma-Aldrich, St. Luis, MO, USA) solution (1.0 U/mL) was incubated at 37 °C for 10 min. After pre-incubation, 5 mM p-nitrophenyl-α-D-glucopyranoside solution (50 μL) in 0.1 M phosphate buffer (pH 6.9) was added to each well at timed intervals. The reaction mixtures were incubated at 37 °C for 30 min. Before and after incubation, absorbance was read at 405 nm and compared to a control, which had 50 μL of buffer solution in place of the extract by micro-plate reader (SUNRISE; Tecan Trading AG, Salzburg, Austria). The α-glucosidase inhibitory activity was expressed as inhibition % and was calculated as follows: Inhibition(%)=(ΔA 405 (Control)−ΔA 405(Extract)/ΔA 405 (Control))×100

[4] = molecular target: T1, porcine pancreatic α-amylase (Sus scrofa, UniProt P00690); assay: Porcine pancreatic α-amylase inhibition assay; type: biochemical; conditions: for IC50: mean ± S.D.
T1 sequence (P00690 16-511): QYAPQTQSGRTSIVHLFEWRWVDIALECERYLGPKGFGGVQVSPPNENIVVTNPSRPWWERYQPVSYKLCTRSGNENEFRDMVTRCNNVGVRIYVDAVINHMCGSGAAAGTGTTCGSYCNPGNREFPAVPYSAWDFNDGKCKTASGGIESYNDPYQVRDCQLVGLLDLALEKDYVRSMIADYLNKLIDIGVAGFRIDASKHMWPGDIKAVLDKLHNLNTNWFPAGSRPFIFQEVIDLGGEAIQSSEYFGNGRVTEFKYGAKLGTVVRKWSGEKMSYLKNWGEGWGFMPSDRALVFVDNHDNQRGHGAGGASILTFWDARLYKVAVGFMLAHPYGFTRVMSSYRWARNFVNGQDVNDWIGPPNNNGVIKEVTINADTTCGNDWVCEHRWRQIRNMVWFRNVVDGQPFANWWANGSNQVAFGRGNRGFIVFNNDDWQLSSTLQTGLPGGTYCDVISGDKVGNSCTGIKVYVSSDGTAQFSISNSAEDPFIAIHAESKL
Method: The porcine pancreatic α-amlyase inhibition assay was administered as per the method of Kwon et al. Sample solution (200 μL) and 0.02 M sodium phosphate buffer (pH 6.9 with 0.006 M sodium chloride, 500 μL) containing α-amylase solution (0.5 mg/mL, 5.0 MU/mL) were incubated at 25 °C for 10 min. After preincubation, 500 μL of a 1% starch solution in 0.02 M sodium phosphate buffer was added. The reaction mixture was then incubated at 25 °C for 10 min. The reaction was stopped with 1.0 mL of dinitrosalicylic acid (DNS). The reaction mixture was then incubated in a boiling water bath for 5 min and cooled to room temperature. The reaction mixture at 540 nm with ELISA microplate reader (SUNRISE; Tecan Trading AG, Saltzburg, Austria).

Rat Intestinal SUCRASE = molecular target: T2, Rat Intestinal SUCRASE (Rattus norvegicus, UniProt P23739); assay: Sucrase inhibition assay (rat intestinal acetone powder); type: biochemical; conditions: mean ± S.D.
T2 construct: The crude enzyme solution prepared from rat intestinal acetone powder; tissue Sigma-Aldrich Co; host or cells: rat intestine (acetone powder)
T2 sequence (P23739 whole entry): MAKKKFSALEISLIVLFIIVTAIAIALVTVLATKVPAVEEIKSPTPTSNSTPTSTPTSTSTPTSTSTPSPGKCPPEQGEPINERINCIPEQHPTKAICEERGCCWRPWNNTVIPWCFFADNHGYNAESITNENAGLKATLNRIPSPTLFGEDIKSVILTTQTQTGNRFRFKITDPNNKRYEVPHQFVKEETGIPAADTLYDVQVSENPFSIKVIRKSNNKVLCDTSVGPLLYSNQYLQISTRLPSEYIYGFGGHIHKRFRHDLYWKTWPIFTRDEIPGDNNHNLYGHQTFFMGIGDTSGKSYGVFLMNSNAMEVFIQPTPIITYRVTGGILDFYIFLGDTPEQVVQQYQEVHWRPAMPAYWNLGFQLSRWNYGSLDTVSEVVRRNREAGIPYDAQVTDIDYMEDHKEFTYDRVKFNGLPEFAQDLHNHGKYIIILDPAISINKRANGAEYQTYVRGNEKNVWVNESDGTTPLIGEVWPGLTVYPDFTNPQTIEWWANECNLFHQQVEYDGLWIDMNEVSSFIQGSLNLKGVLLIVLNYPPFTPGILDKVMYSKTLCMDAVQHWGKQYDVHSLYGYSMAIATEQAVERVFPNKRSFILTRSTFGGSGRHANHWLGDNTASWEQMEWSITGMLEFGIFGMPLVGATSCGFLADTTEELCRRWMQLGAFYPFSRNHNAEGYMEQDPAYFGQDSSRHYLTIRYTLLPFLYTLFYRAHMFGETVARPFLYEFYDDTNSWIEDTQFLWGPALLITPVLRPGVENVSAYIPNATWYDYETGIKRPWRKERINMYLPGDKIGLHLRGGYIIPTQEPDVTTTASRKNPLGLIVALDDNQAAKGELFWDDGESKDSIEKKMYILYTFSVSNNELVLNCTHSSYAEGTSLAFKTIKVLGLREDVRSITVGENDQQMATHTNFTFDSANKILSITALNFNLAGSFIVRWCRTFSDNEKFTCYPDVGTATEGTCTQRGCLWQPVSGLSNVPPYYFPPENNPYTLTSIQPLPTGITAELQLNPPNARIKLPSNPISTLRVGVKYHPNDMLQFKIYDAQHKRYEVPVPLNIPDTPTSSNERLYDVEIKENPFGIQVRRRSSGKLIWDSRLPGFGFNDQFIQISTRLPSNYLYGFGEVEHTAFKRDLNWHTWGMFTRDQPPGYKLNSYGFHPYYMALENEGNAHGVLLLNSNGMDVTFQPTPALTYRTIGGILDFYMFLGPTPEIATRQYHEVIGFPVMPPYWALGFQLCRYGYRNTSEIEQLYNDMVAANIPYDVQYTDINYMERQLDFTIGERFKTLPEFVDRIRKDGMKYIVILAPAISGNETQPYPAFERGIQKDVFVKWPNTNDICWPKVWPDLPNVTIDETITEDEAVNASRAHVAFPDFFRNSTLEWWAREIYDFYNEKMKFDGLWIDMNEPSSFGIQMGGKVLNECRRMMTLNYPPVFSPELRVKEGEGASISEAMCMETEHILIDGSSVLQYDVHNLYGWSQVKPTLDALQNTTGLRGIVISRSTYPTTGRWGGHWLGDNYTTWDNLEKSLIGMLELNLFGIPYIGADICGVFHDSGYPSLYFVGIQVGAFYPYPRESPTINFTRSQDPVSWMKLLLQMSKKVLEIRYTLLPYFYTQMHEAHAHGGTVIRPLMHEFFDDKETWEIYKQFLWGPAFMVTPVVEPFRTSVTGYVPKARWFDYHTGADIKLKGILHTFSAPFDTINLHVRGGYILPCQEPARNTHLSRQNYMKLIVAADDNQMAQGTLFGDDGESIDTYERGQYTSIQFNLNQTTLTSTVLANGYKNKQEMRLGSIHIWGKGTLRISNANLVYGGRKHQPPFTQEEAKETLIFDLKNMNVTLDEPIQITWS
Method: (§2) The crude enzyme solution prepared from rat intestinal acetone powder Sigma-Aldrich Co. (St. Louise, MO, USA) was used as the small intestinal maltase, sucrose, and glucoamylase, showing specific activities of 0.70, 0.34, and 0.45 units/mL, respectively. Rat intestinal acetone powder (1.0 g) was suspended in 3 mL of 0.1 M sodium phosphate buffer, and the suspension was sonicated 12 times for 30 s at 4 °C. After centrifugation (10,000 × g, 30 min, 4 °C), the resulting supernatant was used for the assay. Maltase, sucrose, and glucoamylase inhibitory activity were assay by modifying a method developed by Dahlqvist. The inhibitory activity was determined by incubating a solution of an enzyme (50 μL), 0.1 M phosphate buffer (pH 7.0, 100 μL) containing 0.4 mg/mL sucrose or maltose or 1% soluble starch, and a solution (50 μL) with various concentrations of sample solution (between 0.05 and 1.0 mM) at 37 °C for 30 min. The reaction mixture was heated in a boiling water bath to stop the reaction for 10 min, and the amount of liberated glucose was then measured by the glucose oxidase. The inhibitory activity was calculated from the formula as follows. Inhibition (%) = (C − T)/C × 100, where C is the enzyme activity without inhibitor, and T is the enzyme activity with inhibitor.

Rat Intestinal Maltase = assay: Maltase inhibition assay (rat intestinal acetone powder); type: biochemical; conditions: for IC50 Rat Intestinal Maltase: mean ± S.D.
Method: as §2

[5] = molecular target: Rat Intestinal Glucoamylase (Rattus norvegicus, UniProt D3ZTX4); assay: Glucoamylase inhibition assay (rat intestinal acetone powder); type: biochemical; conditions: read-out: glucoamylase inhibition
Method: as §2

[6] = two highest tested doses 5 and 7 mg/mL
[7] = starch loading, 30 min, vs pyridoxine-treated group
[8] = starch loading, 30 min, vs starch (control) group
[9] = sucrose loading, 30 min, vs pyridoxine-treated group

For `C[C@H]1O[C@H](O[C@H]2[C@H](O)[C@@H](O)[C@@H](O[C@H]3[C@H](O)[C@@H](O)C(O)O[C@@H]3CO)O[C@@H]2CO)[C@H](O)[C@@H](O)[C@@H]1N[C@H]1C=C(CO)[C@@H](O)[C@H](O)[C@H]1O` (stereo partly drawn) [Acarbose, reference compound], the “BGL AUCt” value (Sprague-Dawley (SD) rats [1]; Acarbose 0.005 g/kg oral) was 228.88 ± 13.09 ^a h∙mg/dL and the “BGL AUCt” value (Sprague-Dawley (SD) rats [2]; Acarbose 0.005 g/kg oral) was 237.94 ± 8.82 ^a h∙mg/dL.

`Cc1ncc(CO)c(C=O)c1O` [Pyridoxal] was tested, and the α-glucosidase inhibition ([3]; highest tested dose 7 mg/mL) was 79.83%, the “IC50 Rat intestinal α-Glucosidase” value [3] was 4.14 mg/mL and 4.15 ± 0.17 ^b mg/mL and the IC50 [4] was 77.3 ± 7.3 mM. For the same compound, the “pancreatic α-amylase inhibitory effect” value [4, 6] was “showed α-amylase inhibitory effects”, the IC50 (Rat Intestinal SUCRASE) was 1.91 ± 0.179 mM and the maltase inhibitory activity (Rat Intestinal Maltase; 0.5 mg/mL) was 48.39%. For the same compound, the maltase inhibitory activity (Rat Intestinal Maltase; 1 mg/mL) was 70.10%, the maltase inhibitory activity (Rat Intestinal Maltase; 2 mg/mL) was 83.29% and the “IC50 Rat Intestinal Maltase” value (Rat Intestinal Maltase) was 0.38 mg/mL and 0.37 ± 0.13 ^b mg/mL. The inhibition at 200 µg/mL [5] was 42.8%, the inhibition at 500 µg/mL [5] was 66.1% and the inhibition at 1000 µg/mL [5] was 78.6%. The blood glucose level (Sprague-Dawley (SD) rats [1]) was 175.36 ± 10.84 mg/dL, the “increase in blood glucose level” value (Sprague-Dawley (SD) rats [1]) was 79.78 ± 10.84 mg/dL and the “BGL AUCt” value (Sprague-Dawley (SD) rats [1]; sample 0.1 g/kg oral) was 268.27 ± 8.80 ^b h∙mg/dL. The “decrease of maximum blood glucose level (Cmax) compared to control” value (Sprague-Dawley (SD) rats [1]; starch loading test, p < 0.05) was roughly 19%, the “increase in blood glucose level, less than that of pyridoxine-treated group” value (Sprague-Dawley (SD) rats [1]; [7]) was 27.91 mg/dL and the “suppression of blood glucose level compared to pyridoxine-treated group” value (Sprague-Dawley (SD) rats [1]; [7]) was 26.41 mg/dL. The “increase in blood glucose level, less than that of starch group” value (Sprague-Dawley (SD) rats [1]; [8]) was 44.45 mg/dL, the “suppression of blood glucose level compared to starch group” value (Sprague-Dawley (SD) rats [1]; [8]) was 41.56 mg/dL and the blood glucose level (Sprague-Dawley (SD) rats [2]) was 164.74 ± 12.06 mg/dL. For the same compound, the “change (increase) of blood glucose level” value (Sprague-Dawley (SD) rats [2]) was 64.88 ± 12.06 mg/dL, the “BGL AUCt” value (Sprague-Dawley (SD) rats [2]; sample 0.1 g/kg oral) was 272.99 ± 5.96 ^b h∙mg/dL and the “blood glucose reduction compared to control” value (Sprague-Dawley (SD) rats [2]; at 30 min, loading test not given) was “around 18%”. For the same compound, the “decrease of maximum blood glucose level (Cmax) compared to control” value (Sprague-Dawley (SD) rats [2]; sucrose loading test, p < 0.05) was “about 18%”, the “blood glucose level, less than that of pyridoxine-treated group” value (Sprague-Dawley (SD) rats [2]; [9]) was 27.76 mg/dL and the “change of blood glucose level, lower than pyridoxine-treated group” value (Sprague-Dawley (SD) rats [2]; [9]) was 27.98 mg/dL. For the same compound, the “blood glucose level, less than that of sucrose-treated group” value (Sprague-Dawley (SD) rats [2]; sucrose loading, 30 min, vs sucrose (control) group) was 35.89 mg/dL.

In the case of `Cc1ncc(CO)c(CN)c1O` [Pyridoxamine], the “IC50 Rat intestinal α-Glucosidase” value [3] is reported as 4.85 ± 0.06 ^a mg/mL, the IC50 [4] is reported as 88.8 mM and the “pancreatic α-amylase inhibitory effect” value [4, 6] is reported as “showed α-amylase inhibitory effects”. The IC50 (Rat Intestinal SUCRASE) was 2.08 mM, the “IC50 Rat Intestinal Maltase” value (Rat Intestinal Maltase) was 1.08 ± 0.10 ^a mg/mL and the “BGL AUCt” value (Sprague-Dawley (SD) rats [1]; sample 0.1 g/kg oral) was 275.10 ± 7.31 ^b h∙mg/dL. For the same compound, the “BGL AUCt” value (Sprague-Dawley (SD) rats [2]; sample 0.1 g/kg oral) was 269.14 ± 13.40 ^b h∙mg/dL.

`Cc1ncc(CO)c(CO)c1O` [Pyridoxine] was tested, and the “IC50 Rat intestinal α-Glucosidase” value [3] was 5.02 ± 0.05 ^a mg/mL, the “pancreatic α-amylase inhibitory effect” value ([4]; highest tested dose 7 mg/mL) was “no inhibitory effects” and the IC50 [4] was 137 mM. For the same compound, the IC50 (Rat Intestinal SUCRASE) was 1.89 mM, the “IC50 Rat Intestinal Maltase” value (Rat Intestinal Maltase) was 0.87 ± 0.08 ^a mg/mL and the blood glucose level (Sprague-Dawley (SD) rats [1]) was 201.78 ± 18.99 mg/dL. For the same compound, the “increase in blood glucose level” value (Sprague-Dawley (SD) rats [1]) was 107.69 ± 18.99 mg/dL, the “BGL AUCt” value (Sprague-Dawley (SD) rats [1]; sample 0.1 g/kg oral) was 274.28 ± 15.62 ^b h∙mg/dL and the blood glucose level (Sprague-Dawley (SD) rats [2]) was 192.50 ± 10.10 mg/dL. For the same compound, the “change (increase) of blood glucose level” value (Sprague-Dawley (SD) rats [2]) was 92.86 ± 10.10 mg/dL and the “BGL AUCt” value (Sprague-Dawley (SD) rats [2]; sample 0.1 g/kg oral) was 290.64 ± 15.55 ^c h∙mg/dL.
